Reference: patent publication US20080132454A1, “Antihypertensive Peptides” (priority 2004, published 2008)
Residues, ends and D or L forms follow the SMILES beside them. No end group written: not given here.

Tests used:
[1] = biological target: T1, angiotensin converting enzyme (ACE) (Oryctolagus cuniculus, UniProt P12822); assay: ACE assay with purified ACE enzyme (Inhibition of Angiotensin Converting Enzyme); type: biochemical; details: purified ACE enzyme (Sigma); for ACE inhibiting activity (in words): judged from IC50 values; for IC50: synthetic peptides, purity >95%
T1 construct: purchased Sigma
T1 sequence (P12822 34-1310): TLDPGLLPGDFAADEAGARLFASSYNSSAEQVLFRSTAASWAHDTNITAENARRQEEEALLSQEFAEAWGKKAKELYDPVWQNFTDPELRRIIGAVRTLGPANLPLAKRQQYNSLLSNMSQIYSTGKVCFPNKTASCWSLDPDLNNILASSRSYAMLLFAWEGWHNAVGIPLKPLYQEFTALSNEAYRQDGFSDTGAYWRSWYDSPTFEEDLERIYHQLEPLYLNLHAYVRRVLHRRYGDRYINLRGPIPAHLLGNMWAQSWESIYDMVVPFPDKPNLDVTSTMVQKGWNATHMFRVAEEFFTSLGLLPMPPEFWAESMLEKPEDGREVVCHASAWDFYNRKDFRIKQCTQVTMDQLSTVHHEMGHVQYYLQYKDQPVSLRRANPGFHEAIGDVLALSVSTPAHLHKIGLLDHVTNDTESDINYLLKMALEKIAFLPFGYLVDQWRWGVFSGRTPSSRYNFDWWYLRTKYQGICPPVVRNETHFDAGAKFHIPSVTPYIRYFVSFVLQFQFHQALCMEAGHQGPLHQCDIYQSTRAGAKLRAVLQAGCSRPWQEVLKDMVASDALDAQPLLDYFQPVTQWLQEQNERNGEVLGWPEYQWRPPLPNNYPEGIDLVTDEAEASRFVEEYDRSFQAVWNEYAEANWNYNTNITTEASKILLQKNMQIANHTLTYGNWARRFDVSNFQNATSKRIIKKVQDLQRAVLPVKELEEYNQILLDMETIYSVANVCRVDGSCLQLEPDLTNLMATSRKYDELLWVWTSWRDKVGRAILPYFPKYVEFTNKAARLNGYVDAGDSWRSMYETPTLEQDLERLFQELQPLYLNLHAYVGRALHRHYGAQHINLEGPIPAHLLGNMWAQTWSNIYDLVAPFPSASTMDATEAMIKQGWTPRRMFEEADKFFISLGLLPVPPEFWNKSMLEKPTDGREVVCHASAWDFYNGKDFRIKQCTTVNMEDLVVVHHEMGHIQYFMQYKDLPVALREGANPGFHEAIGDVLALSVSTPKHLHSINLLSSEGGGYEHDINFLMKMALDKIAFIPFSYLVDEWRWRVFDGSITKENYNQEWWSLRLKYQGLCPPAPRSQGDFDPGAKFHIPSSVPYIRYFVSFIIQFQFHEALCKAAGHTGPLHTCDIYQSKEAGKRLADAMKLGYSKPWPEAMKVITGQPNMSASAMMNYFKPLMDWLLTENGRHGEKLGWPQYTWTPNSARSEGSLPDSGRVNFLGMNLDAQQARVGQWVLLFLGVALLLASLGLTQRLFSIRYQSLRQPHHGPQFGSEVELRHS
Procedure: In order to determine IC50 values for the peptides included in this invention, pure peptides (purity of >95% in weight) were prepared by custom solid-phase synthesis on a 10 μmol scale and subsequently purified by HPLC (synthesis and purification performed by Eurosequence, the Netherlands). Purified ACE enzyme (Sigma) was used for the ACE assay (Wu et al. 2002 J. Chromatography 950, 125-130). […] Finally, the peptides which are fragments of the amino acid sequences shown in SEQ ID NO: 1, SEQ ID NO: 2 and SEQ ID NO: 3, respectively SEQ ID NO: 7, SEQ ID NO: 8 and SEQ ID NO: 9 were tested for their ACE inhibiting activity.

[2] = Bioavailability: peptide amount in plasma after oral administration to mice; type: in vivo; details: mouse, 500 ug, Balb/C mice, 500 μg each orally, two hours after administration, HPLC-MS
Procedure: Peptides SEQ ID NO: 1, SEQ ID NO: 2 and SEQ ID NO: 3 (purity of >95% in weight, 500 μg each) were orally administered to mice (Balb/C, 3 months of age). After 2 hours, mice were sacrificed and a blood sample collected. After centrifugation of the blood sample (5 min, 3000 g) plasma was collected, dried and resuspended in ethyl acetate. The samples were then analyzed by HPLC-MS, and the amount of the peptides of this invention present in the plasma samples calculated using standard curves. Two hours after their oral administration, all three peptides were found in the plasma samples in the following amounts: SEQ ID NO: 1: 7.5 μg/ml, SEQ ID NO: 2: 1.2 μg/ml, and SEQ ID NO: 3: 0.9 μg/ml.

Molecule	ACE inhibiting activity (in words) [1]	IC50 [1] [µM]	level at 2 h [2] [ng/mL]
CC(C)C[C@H](NC(=O)[C@@H](N)CO)C(=O)N1CCC[C@H]1C(=O)N[C@@H](CCC(=O)O)C(=O)O [SEQ ID NO: 2] (H-SLPE-OH; N-terminus and C-terminus assumed)	strong inhibitors of ACE	329	1200
GPIPN [SEQ ID NO: 7]	good ACE inhibitors	287	
NCCCC[C@H](NC(=O)[C@@H]1CCCN1C(=O)[C@H](CCC(=O)O)NC(=O)[C@@H](N)CO)C(=O)O [SEQ ID NO: 3] (H-SEPK-OH; N-terminus and C-terminus assumed)	strong inhibitors of ACE	354	900
CC(C)C[C@H](N)C(=O)N1CCC[C@H]1C(=O)N[C@@H](CCC(=O)O)C(=O)O [SEQ ID NO: 8] (H-Leu-Pro-Glu-OH; N-terminus and C-terminus assumed)	good ACE inhibitors	337	
LSEPKV [SEQ ID NO: 6]	good ACE inhibitors	397	
YGPIPN [SEQ ID NO: 1]	strong inhibitors of ACE	317	7500
NCCCC[C@H](NC(=O)[C@@H]1CCCN1C(=O)[C@@H](N)CCC(=O)O)C(=O)O [SEQ ID NO: 9] (H-Glu-Pro-Lys-OH; N-terminus and C-terminus assumed)	good ACE inhibitors	364	
NSLPEN [SEQ ID NO: 5]	good ACE inhibitors	369	
FYGPIPNS [SEQ ID NO: 4]	good ACE inhibitors	435	
